Where no end group is shown, it is not given here.
How the values were obtained:
[1] = tested on: denuded oocytes; parameters: method as in 2 sources, one per row (each row's own in cited_ref): ref 76 = [76]; PMID 20382141; doi:10.1016/j.ydbio.2010.03.027; 76. Pang Y Thomas P . Role of G protein-coupled estrogen receptor 1, GPER, in inhibition of oocyte maturation by endogenous estrogens in zebrafish . Dev Biol. ( 2010 ) 342 : 194 – 206 . 10.1016/j.ydbi ||| ref 77 = [77]; PMID 21636738; doi:10.1095/biolreprod.111.091884; 77. Zhou R Tsang AH Lau SW Ge W . Pituitary adenylate cyclase-activating polypeptide (PACAP) and its receptors in the zebrafish ovary: evidence for potentially dual roles of pacap in controlling final; details: zebrafish, via GPER; cited from earlier work
[2] = biological target: T1, Sp-sNPFR (Scylla paramamosain, UniProt A0A345ZFF5); test: Ligand-receptor activation of signaling, dual-luciferase (pCRE-luc) reporter in HEK293T; type: cell-based; details: HEK293T transiently co-transfected with Sp-sNPFR/pEGFP-N1, pCRE-luc, pRL-TK; incubation 6 h; dual-luciferase read-out (Figure 3B legend: concentration of cAMP determined); nonlinear curve fitting; mean ± SD, three biological replicates
T1 sequence (A0A345ZFF5 1-458): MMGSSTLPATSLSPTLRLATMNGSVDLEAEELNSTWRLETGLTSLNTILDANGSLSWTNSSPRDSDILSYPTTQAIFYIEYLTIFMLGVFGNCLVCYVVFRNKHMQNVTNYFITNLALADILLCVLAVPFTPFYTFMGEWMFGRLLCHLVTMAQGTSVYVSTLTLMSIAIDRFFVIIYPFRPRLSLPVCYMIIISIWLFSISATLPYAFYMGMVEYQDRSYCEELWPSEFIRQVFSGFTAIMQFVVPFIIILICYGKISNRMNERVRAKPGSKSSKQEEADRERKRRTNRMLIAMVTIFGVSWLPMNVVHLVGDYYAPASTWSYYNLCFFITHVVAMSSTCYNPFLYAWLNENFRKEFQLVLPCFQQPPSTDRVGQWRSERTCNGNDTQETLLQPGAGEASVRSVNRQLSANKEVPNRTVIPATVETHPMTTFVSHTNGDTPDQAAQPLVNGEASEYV
Description: Human embryonic kidney cell lines (HEK293T) were maintained in high glucose DMEM (Hyclone) supplemented with 10% fetal bovine serum (Gibco), 100 U/mL penicillin and 100 μg/mL streptomycin (Hyclone) at 37°C in a humidified incubator (Thermo) containing 5% CO2. Cells were seeded overnight in 6-well plates and transiently co-transfected with 1 μg of the Sp-sNPFR/pEGFP-N1 plasmid, 0.8 μg of the reporter gene pCRE-luc, and 0.4 μg of internal control gene pRL-TK using 5 μL Lipofectamine 2000 (Invitrogen) reagent following the manufacturer's protocols. Empty pEGFP-N1 plasmid was used for mock transfection.
HEK293T transiently co-transfected with Sp-sNPFR/pEGFP-N1 and dual-luciferase reporter system vectors were grown to 90% confluency in a 24-well plate. Cells were first treated with synthetic Sp-sNPF peptide mixture and the mixture containing 9 synthetic FLPs (GL Biochem, Table 2) at 1 μM each. Further, various concentrations of individual peptides were used to record dose-dependent curves. After incubation for 6 h, ligand-induced changes in luciferase activity were measured by GloMax® 20/20 Luminometer (Promega) with Dual-Luciferase® Reporter Assay System Kit (Promega).
All values are expressed as mean ± SD. Multiple sequence alignment of sNPFR sequences was performed with ClustalX and embellished by LaTEX TexShade ([57]). Data of ligand-receptor assays were analyzed using nonlinear curve fitting (GraphPad Prism 6.0) to obtain activation curves and EC50 values. The mRNA levels of Sp-Vg and Sp-VgR gene were normalized against the internal control β-actin, and the relative expression was calculated using the 2^−ΔΔCt method. Statistical significance was determined using one-way ANOVA followed by Duncan's multiple range tests. All statistical analyses were performed using IBM SPSS Statistics 20.0. Pictures were drawn by GraphPad Prism 6.0 and modified with Adobe Photoshop CS5.

Compound | inhibition of spontaneous oocyte maturation [1] | EC50 [2] [µM]
C[C@]12CC[C@@H]3c4ccc(O)cc4CC[C@H]3[C@@H]1CC[C@@H]2O [E2, Estradiol] | partly inhibited the spontaneous maturation of the denuded oocytes | –
APPSMRLRF-NH2 [Sp-sNPF1] | – | 1.2
KDARTPALRLRF-NH2 [Sp-sNPF3] | – | 8.5
SMPTLRLRF-NH2 [Sp-sNPF2] | – | 3.8
